Test results: patent publication US10316017B2, “COT modulators and methods of use thereof” (Gilead Sciences, Inc., priority 2015, dated 2019)
pIC50: −log10 of the molar value.

molecular target: T1, human Cot catalytic domain (30-397 amino acids) (Homo sapiens, UniProt P41279); assay: High Throughput Cot Biochemical Assay (KinEASE TR-FRET); conditions: Cot KinEASE TR-FRET, 400 μM ATP; read-out: IC50 HTRF
T1 construct: Purified recombinant human Cot catalytic domain (30-397 amino acids) was purchased from Cama Biosciences; purchased Cama Biosciences (so in the source)
T1 sequence (P41279 30-397): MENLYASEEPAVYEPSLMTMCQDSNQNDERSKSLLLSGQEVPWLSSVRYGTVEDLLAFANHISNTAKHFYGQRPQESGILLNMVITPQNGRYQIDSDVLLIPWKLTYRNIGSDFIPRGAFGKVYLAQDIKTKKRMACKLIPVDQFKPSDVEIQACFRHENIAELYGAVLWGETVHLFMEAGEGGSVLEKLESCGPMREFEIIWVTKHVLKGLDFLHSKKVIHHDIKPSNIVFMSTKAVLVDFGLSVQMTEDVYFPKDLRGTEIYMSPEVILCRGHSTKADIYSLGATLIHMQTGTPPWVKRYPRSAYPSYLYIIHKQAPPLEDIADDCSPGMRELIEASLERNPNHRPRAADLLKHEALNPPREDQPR
In short: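 Recombinant human Cot catalytic domain (aa 30-397), 5 nM, with 1 μM STK3 peptide and 400 μM ATP in MOPS pH 7.0 buffer with MgOAc, DTT, BSA, NP-40, glycerol, 0.1% DMSO. Phosphorylated XL665-peptide detected by Eu-[…] antibody TR-FRET.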

| pIC50 | Compound |
| --- | --- |
| 7.52 | Cn1cc(C(Nc2cc(Cl)c3ncc(C#N)c(Nc4ccc(F)c(Cl)c4)c3c2)c2ccc(F)c(F)c2)nn1 (stereo not shown) [Example 891, 8-chloro-4-((3-chloro-4-fluorophenyl)amino)-6-(((3,4-difluorophenyl)(1-methyl-1H-1,2,3-triazol-4-yl)methyl)amino)quinoline-3-carbonitrile] |
| 7.11 | Cn1cc(C(Nc2cc(Cl)c3ncc(C#N)c(Nc4ccc(F)c(Cl)c4)c3c2)c2ccc(Cl)c(Cl)c2)nn1 (stereo not shown) [Example 892, 8-chloro-4-((3-chloro-4-fluorophenyl)amino)-6-(((3,4-dichlorophenyl)(1-methyl-1H-1,2,3-triazol-4-yl)methyl)amino)quinoline-3-carbonitrile] |
| 7.41 | N#Cc1cnc2c(Cl)cc(NC(c3ccc(F)cc3)c3c[nH]nn3)cc2c1Nc1ccc(F)c(Cl)c1 (stereo not shown) [Example 893, 8-chloro-4-((3-chloro-4-fluorophenyl)amino)-6-(((4-fluorophenyl)(1H-1,2,3-triazol-4-yl)methyl)amino)quinoline-3-carbonitrile] |
| < 5.00 | N#Cc1cnc2c(Cl)cc(NC(c3ccc(OC(F)(F)F)cc3)c3cn(C4CCN(C(=O)OCc5ccccc5)CC4)nn3)cc2c1Nc1ccc(F)c(Cl)c1 (stereo not shown) [Example 896, benzyl 4-(4-(((8-chloro-4-((3-chloro-4-fluorophenyl)amino)-3-cyanoquinolin-6-yl)amino)(4-(trifluoromethoxy)phenyl)methyl)-1H-1,2,3-triazol-1-yl)piperidine-1-carboxylate] |
| 7.23 | N#Cc1cnc2c(Cl)cc(NC(c3ccc(OC(F)(F)F)cc3)c3cn(C4CCNCC4)nn3)cc2c1Nc1ccc(F)c(Cl)c1 (stereo not shown) [Example 897, 8-chloro-4-((3-chloro-4-fluorophenyl)amino)-6-(((1-(piperidin-4-yl)-1H-1,2,3-triazol-4-yl)(4-(trifluoromethoxy)phenyl)methyl)amino)quinoline-3-carbonitrile] |
| 7.40 | CCN1CCC(n2cc(C(Nc3cc(Cl)c4ncc(C#N)c(Nc5ccc(F)c(Cl)c5)c4c3)c3ccc(OC(F)(F)F)cc3)nn2)CC1 (stereo not shown) [Example 898, 8-chloro-4-((3-chloro-4-fluorophenyl)amino)-6-(((1-(1-ethylpiperidin-4-yl)-1H-1,2,3-triazol-4-yl)(4-(trifluoromethoxy)phenyl)methyl)amino)quinoline-3-carbonitrile] |
| < 6.00 | N#Cc1cnc2c(Cl)cc(NC(c3ccc(F)c(F)c3)c3cn(C4CCN(C(=O)OCc5ccccc5)CC4)nn3)cc2c1Nc1ccc(F)c(Cl)c1 (stereo not shown) [Example 899, benzyl 4-(4-(((8-chloro-4-((3-chloro-4-fluorophenyl)amino)-3-cyanoquinolin-6-yl)amino)(3,4-difluorophenyl)methyl)-1H-1,2,3-triazol-1-yl)piperidine-1-carboxylate] |
| 7.85 | N#Cc1cnc2c(Cl)cc(NC(c3ccc(F)c(F)c3)c3cn(C4CCNCC4)nn3)cc2c1Nc1ccc(F)c(Cl)c1 (stereo not shown) [Example 900, 8-chloro-4-((3-chloro-4-fluorophenyl)amino)-6-(((3,4-difluorophenyl)(1-(piperidin-4-yl)-1H-1,2,3-triazol-4-yl)methyl)amino)quinoline-3-carbonitrile] |
| 7.96 | CCN1CCC(n2cc(C(Nc3cc(Cl)c4ncc(C#N)c(Nc5ccc(F)c(Cl)c5)c4c3)c3ccc(F)c(F)c3)nn2)CC1 (stereo not shown) [Example 901, 8-chloro-4-((3-chloro-4-fluorophenyl)amino)-6-(((3,4-difluorophenyl)(1-(1-ethylpiperidin-4-yl)-1H-1,2,3-triazol-4-yl)methyl)amino)quinoline-3-carbonitrile] |
| < 6.00 | COc1cccc(C(Nc2cc(Cl)c3ncc(C#N)c(Nc4ccc(F)c(Cl)c4)c3c2)c2cn(C3CCN(C(=O)OCc4ccccc4)CC3)nn2)c1 (stereo not shown) [Example 902, benzyl 4-(4-(((8-chloro-4-((3-chloro-4-fluorophenyl)amino)-3-cyanoquinolin-6-yl)amino)(3-methoxyphenyl)methyl)-1H-1,2,3-triazol-1-yl)piperidine-1-carboxylate] |
| 8.15 | COc1cccc(C(Nc2cc(Cl)c3ncc(C#N)c(Nc4ccc(F)c(Cl)c4)c3c2)c2cn(C3CCNCC3)nn2)c1 (stereo not shown) [Example 903, 8-chloro-4-((3-chloro-4-fluorophenyl)amino)-6-(((3-methoxyphenyl)(1-(piperidin-4-yl)-1H-1,2,3-triazol-4-yl)methyl)amino)quinoline-3-carbonitrile] |
| 8.30 | CCN1CCC(n2cc(C(Nc3cc(Cl)c4ncc(C#N)c(Nc5ccc(F)c(Cl)c5)c4c3)c3cccc(OC)c3)nn2)CC1 (stereo not shown) [Example 904, 8-chloro-4-((3-chloro-4-fluorophenyl)amino)-6-(((1-(1-ethylpiperidin-4-yl)-1H-1,2,3-triazol-4-yl)(3-methoxyphenyl)methyl)amino) quinoline-3-carbonitrile] |
| < 6.00 | N#Cc1cnc2c(Cl)cc(NC(c3cccc(F)c3)c3cn(C4CCN(C(=O)OCc5ccccc5)CC4)nn3)cc2c1Nc1ccc(F)c(Cl)c1 (stereo not shown) [Example 905, benzyl 4-(4-(((8-chloro-4-((3-chloro-4-fluorophenyl)amino)-3-cyanoquinolin-6-yl)amino)(3-fluorophenyl)methyl)-1H-1,2,3-triazol-1-yl)piperidine-1-carboxylate] |
| 8.10 | N#Cc1cnc2c(Cl)cc(NC(c3cccc(F)c3)c3cn(C4CCNCC4)nn3)cc2c1Nc1ccc(F)c(Cl)c1 (stereo not shown) [Example 906, 8-chloro-4-((3-chloro-4-fluorophenyl)amino)-6-(((3-fluorophenyl)(1-(piperidin-4-yl)-1H-1,2,3-triazol-4-yl)methyl)amino)quinoline-3-carbonitrile] |
| 8.30 | CCN1CCC(n2cc(C(Nc3cc(Cl)c4ncc(C#N)c(Nc5ccc(F)c(Cl)c5)c4c3)c3ccc(F)cc3)nn2)CC1 (stereo not shown) [Example 908, 8-chloro-4-((3-chloro-4-fluorophenyl)amino)-6-(((1-(1-ethylpiperidin-4-yl)-1H-1,2,3-triazol-4-yl)(4-fluorophenyl)methyl)amino) quinoline-3-carbonitrile] |
| < 6.00 | N#Cc1cnc2c(Cl)cc(NC(c3ccc(Cl)c(Cl)c3)c3cn(C4CCN(C(=O)OCc5ccccc5)CC4)nn3)cc2c1Nc1ccc(F)c(Cl)c1 (stereo not shown) [Example 909, benzyl 4-(4-(((8-chloro-4-((3-chloro-4-fluorophenyl)amino)-3-cyanoquinolin-6-yl)amino)(3,4-dichlorophenyl)methyl)-1H-1,2,3-triazol-1-yl)piperidine-1-carboxylate] |
| 7.28 | N#Cc1cnc2c(Cl)cc(NC(c3ccc(Cl)c(Cl)c3)c3cn(C4CCNCC4)nn3)cc2c1Nc1ccc(F)c(Cl)c1 (stereo not shown) [Example 910, 8-chloro-4-((3-chloro-4-fluorophenyl)amino)-6-(((3,4-dichlorophenyl)(1-(piperidin-4-yl)-1H-1,2,3-triazol-4-yl)methyl)amino)quinoline-3-carbonitrile] |
| 7.44 | CCN1CCC(n2cc(C(Nc3cc(Cl)c4ncc(C#N)c(Nc5ccc(F)c(Cl)c5)c4c3)c3ccc(Cl)c(Cl)c3)nn2)CC1 (stereo not shown) [Example 911, 8-chloro-4-((3-chloro-4-fluorophenyl)amino)-6-(((3,4-dichlorophenyl)(1-(1-ethylpiperidin-4-yl)-1H-1,2,3-triazol-4-yl)methyl)amino)quinoline-3-carbonitrile] |
| 7.22 | N#Cc1cnc2c(Cl)cc(NC(c3ccccc3)c3cn(CC(=O)O)nn3)cc2c1Nc1ccc(F)c(Cl)c1 (stereo not shown) [Example 912, 2-(4-(((8-chloro-4-((3-chloro-4-fluorophenyl)amino)-3-cyanoquinolin-6-yl)amino)(phenyl)methyl)-1H-1,2,3-triazol-1-yl)acetic acid] |
| < 6.00 | N#Cc1cnc2c(Cl)cc(NC(c3ccc(Cl)cc3)c3cn(C4CCN(C(=O)OCc5ccccc5)CC4)nn3)cc2c1Nc1ccc(F)c(Cl)c1 (stereo not shown) [Example 913, benzyl 4-(4-(((8-chloro-4-((3-chloro-4-fluorophenyl)amino)-3-cyanoquinolin-6-yl)amino)(4-chlorophenyl)methyl)-1H-1,2,3-triazol-1-yl)piperidine-1-carboxylate] |
| 7.64 | N#Cc1cnc2c(Cl)cc(NC(c3ccc(Cl)cc3)c3cn(C4CCNCC4)nn3)cc2c1Nc1ccc(F)c(Cl)c1 (stereo not shown) [Example 914, 8-chloro-4-((3-chloro-4-fluorophenyl)amino)-6-(((4-chlorophenyl)(1-(piperidin-4-yl)-1H-1,2,3-triazol-4-yl)methyl)amino)quinoline-3-carbonitrile] |
| < 6.00 | Cc1ccc(C(Nc2cc(Cl)c3ncc(C#N)c(Nc4ccc(F)c(Cl)c4)c3c2)c2cn(C3CCN(C(=O)OCc4ccccc4)CC3)nn2)cc1 (stereo not shown) [Example 915, benzyl 4-(4-(((8-chloro-4-((3-chloro-4-fluorophenyl)amino)-3-cyanoquinolin-6-yl)aminoXp-tolyl)methyl)-1H-1,2,3-triazol-1-yl)piperidine-1-carboxylate] |
| 7.32 | Cc1ccc(C(Nc2cc(Cl)c3ncc(C#N)c(Nc4ccc(F)c(Cl)c4)c3c2)c2cn(C3CCNCC3)nn2)cc1 (stereo not shown) [Example 916, 8-chloro-4-((3-chloro-4-fluorophenyl)amino)-6-(((1-(piperidin-4-yl)-1H-1,2,3-triazol-4-yl)(p-tolyl)methyl)amino) quinoline-3-carbonitrile] |
| 7.64 | CCN1CCC(n2cc(C(Nc3cc(Cl)c4ncc(C#N)c(Nc5ccc(F)c(Cl)c5)c4c3)c3ccc(C)cc3)nn2)CC1 (stereo not shown) [Example 917, 8-chloro-4-((3-chloro-4-fluorophenyl)amino)-6-(((1-(1-ethylpiperidin-4-yl)-1H-1,2,3-triazol-4-yl)(p-tolyl)methyl)amino)quinoline-3-carbonitrile] |
| 8.10 | N#Cc1cnc2c(Cl)cc(NC(c3ccccc3)c3cn(C4CCNCC4)nn3)cc2c1Nc1ccc(F)c(Cl)c1 (stereo not shown) [Example 921, 8-chloro-4-((3-chloro-4-fluorophenyl)amino)-6-((phenyl (1-(piperidin-4-yl)-1H-1,2,3-triazol-4-yl)methyl)amino)quinoline-3-carbonitrile] |
